Values quoted from earlier work, collected in patent publication US10722577B2, “Methods for treating GI syndrome and graft versus host disease” (Sloan Kettering Institute for Cancer Research, priority 2012, dated 2020).

System: in vitro models of GvHD
Settings: previous work, U.S. Ser. No. 12/599,280; cited from earlier work

SMILES: C[C@@H]1[C@H](O)[C@@H](C)/C=C/C=C/CC/C=C/C=C/C=C/C=C/C(O[C@H]2O[C@H](C)[C@@H](O)[C@H](N)[C@@H]2O)CC2O[C@](O)(CC(O)C(O)CCC(O)CC(O)CC(O)CC(=O)O[C@H]1C)CC(O)C2C(=O)O (stereo partly shown) [nystatin]
- apoptosis in in vitro models of GvHD: beneficial effects in reducing apoptosis
